For assay [1], the target named is T1, Serine/threonine-protein kinase MAK (Homo sapiens) (UniProt P20794).
T1 sequence (whole entry): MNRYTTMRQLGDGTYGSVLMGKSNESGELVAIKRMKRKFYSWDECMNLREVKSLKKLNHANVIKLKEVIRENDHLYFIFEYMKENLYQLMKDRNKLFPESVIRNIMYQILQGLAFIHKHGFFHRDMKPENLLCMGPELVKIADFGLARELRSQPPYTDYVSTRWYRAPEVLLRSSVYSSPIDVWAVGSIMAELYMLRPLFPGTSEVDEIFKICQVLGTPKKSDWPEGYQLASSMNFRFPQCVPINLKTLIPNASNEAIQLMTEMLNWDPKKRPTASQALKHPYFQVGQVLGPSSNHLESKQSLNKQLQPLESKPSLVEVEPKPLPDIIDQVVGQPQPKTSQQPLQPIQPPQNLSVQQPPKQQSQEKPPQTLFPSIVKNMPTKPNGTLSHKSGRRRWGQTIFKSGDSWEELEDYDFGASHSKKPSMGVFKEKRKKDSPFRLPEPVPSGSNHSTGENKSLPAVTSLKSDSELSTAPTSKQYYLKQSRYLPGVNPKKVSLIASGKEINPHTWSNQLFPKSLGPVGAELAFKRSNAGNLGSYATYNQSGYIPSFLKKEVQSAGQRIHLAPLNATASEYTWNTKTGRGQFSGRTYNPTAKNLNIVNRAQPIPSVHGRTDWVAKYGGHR
Kind of assay: Selectivity interaction (KinomeScan (DiscoverX)) EUB0000595a MAK. As to conditions: at 10 µM.

In assay [2] the target is Casein kinase I isoform gamma-2 (Homo sapiens) (UniProt P78368). Kind of assay: Selectivity interaction (Kinase panel (Invitrogen)) EUB0000639a CSNK1G2. The following applies: at 200 nM.
For assay [3], the target named is T2, Serine/threonine-protein kinase DCLK1 (Homo sapiens) (UniProt O15075).
T2 sequence (whole entry): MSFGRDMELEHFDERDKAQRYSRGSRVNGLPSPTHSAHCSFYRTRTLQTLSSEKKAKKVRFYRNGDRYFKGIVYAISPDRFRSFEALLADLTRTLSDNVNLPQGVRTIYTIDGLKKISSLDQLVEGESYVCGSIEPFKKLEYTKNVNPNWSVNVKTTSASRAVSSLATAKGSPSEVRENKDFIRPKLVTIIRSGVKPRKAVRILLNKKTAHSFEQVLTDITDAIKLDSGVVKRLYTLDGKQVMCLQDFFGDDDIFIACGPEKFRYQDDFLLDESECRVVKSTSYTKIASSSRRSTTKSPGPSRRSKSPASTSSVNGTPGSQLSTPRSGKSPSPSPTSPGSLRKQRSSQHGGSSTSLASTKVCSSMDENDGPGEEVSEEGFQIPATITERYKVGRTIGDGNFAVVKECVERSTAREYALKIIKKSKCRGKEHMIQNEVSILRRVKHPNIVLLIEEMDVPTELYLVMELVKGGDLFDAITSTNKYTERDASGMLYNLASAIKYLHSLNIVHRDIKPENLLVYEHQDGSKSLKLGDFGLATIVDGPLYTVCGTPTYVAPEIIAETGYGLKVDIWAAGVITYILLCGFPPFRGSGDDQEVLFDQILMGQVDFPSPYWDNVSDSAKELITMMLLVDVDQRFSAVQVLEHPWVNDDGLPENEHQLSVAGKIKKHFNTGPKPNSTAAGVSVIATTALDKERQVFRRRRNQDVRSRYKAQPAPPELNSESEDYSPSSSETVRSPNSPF
Kind of assay: Selectivity interaction (Kinase panel (DSF assay)) EUB0001559a DCLK1. On the technique in general: DSF heats the sample and reads unfolding from a dye or from intrinsic fluorescence.

Assay [4] deals with T3, Mitogen-activated protein kinase kinase kinase 2 (Homo sapiens) (UniProt Q9Y2U5).
T3 sequence (whole entry): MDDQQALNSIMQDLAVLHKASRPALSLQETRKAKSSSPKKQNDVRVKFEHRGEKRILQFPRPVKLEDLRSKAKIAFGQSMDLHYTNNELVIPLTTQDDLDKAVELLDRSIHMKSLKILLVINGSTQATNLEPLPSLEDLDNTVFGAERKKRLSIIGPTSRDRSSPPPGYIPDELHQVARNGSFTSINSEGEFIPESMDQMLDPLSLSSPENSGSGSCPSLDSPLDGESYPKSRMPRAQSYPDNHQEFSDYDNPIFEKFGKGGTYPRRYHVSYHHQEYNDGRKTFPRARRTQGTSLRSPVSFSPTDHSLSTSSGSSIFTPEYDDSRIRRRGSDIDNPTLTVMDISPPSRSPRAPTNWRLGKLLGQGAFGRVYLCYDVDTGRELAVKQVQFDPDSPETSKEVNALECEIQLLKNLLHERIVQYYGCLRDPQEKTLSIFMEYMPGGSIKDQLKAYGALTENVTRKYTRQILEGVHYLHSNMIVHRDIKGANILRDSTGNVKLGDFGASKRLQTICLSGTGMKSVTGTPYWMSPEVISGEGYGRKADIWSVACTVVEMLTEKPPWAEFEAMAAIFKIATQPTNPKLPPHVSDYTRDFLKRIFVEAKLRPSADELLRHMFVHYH
Put plainly: Selectivity interaction (Ambit KINOMEscan and KiNATiv profiling in Jurkat cells) EUB0000090b MAP3K2. Format: cell-based. The following applies: at 1 µM.

Assay [5] has as its target T4, Serine/threonine-protein kinase 17A (Homo sapiens) (UniProt Q9UEE5).
T4 sequence (whole entry): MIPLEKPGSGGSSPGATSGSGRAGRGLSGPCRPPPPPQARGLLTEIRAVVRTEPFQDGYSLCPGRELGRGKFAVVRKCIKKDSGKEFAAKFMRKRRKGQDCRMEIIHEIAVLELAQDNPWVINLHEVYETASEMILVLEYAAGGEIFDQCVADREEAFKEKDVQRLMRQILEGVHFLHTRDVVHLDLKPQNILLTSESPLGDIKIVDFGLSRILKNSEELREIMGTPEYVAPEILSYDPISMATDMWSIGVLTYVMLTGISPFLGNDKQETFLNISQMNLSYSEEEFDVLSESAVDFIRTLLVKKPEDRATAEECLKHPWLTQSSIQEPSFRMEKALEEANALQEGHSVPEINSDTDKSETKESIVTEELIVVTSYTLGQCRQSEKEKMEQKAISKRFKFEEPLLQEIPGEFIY
Kind of assay: Selectivity interaction (KinomeScan (DiscoverX)) EUB0001079a STK17A. As to conditions: at 1 µM.

Each structure is given as a SMILES string.

Casein kinase I isoform gamma-2 (Homo sapiens), sequence (P78368 whole entry, looked up, canonical isoform): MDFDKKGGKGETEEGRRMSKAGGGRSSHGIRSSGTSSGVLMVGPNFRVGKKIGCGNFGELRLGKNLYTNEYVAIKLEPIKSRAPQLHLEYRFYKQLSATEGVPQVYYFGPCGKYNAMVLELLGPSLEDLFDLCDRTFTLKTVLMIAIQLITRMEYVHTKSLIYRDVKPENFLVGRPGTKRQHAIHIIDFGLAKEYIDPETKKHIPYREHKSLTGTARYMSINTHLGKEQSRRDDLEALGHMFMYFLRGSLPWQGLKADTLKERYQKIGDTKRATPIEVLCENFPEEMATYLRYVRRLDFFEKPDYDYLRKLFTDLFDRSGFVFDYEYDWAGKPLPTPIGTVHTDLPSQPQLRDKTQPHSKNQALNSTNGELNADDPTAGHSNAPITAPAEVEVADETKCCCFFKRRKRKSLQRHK

In turn, `COCC(=O)NC/C=C/c1ccc2ncnc(Nc3ccc(Oc4ccc(C)nc4)c(C)c3)c2c1` [CP-724714] came in with a % of control in assay [1] of 90%.
Turning to `CC[C@@H]1[C@H](F)C(=O)N[C@@H]1COc1nccc2cc(C(N)=O)c(OC)cc12` [ZIMLOVISERTIB], the % of inhibition in assay [2] came to 64.8%.
`CN(C(=O)c1cnn2cccnc12)c1cc2c(cc1N1CCOCC1)C(=O)N(C[C@@H](F)C(C)(C)O)C2` displayed a dTM in assay [3] of 0.8 K.
The compound `CN(C)C/C=C/C(=O)Nc1ccc(C(=O)N2CCCC(Nc3ncc(Cl)c(-c4c[nH]c5ccccc45)n3)C2)cc1` (stereo not given) came in with a % of control in assay [4] of 99%.
As for `Nc1cnc(N2CCc3cc(S(=O)(=O)Nc4c(F)cc(Cl)cc4F)cc(N4CCCC4=O)c32)nc1` [TP-020n], the % of control in assay [5] amounted to 100%.

The record behind these values is ChEMBL document CHEMBL5465560, “Selectivity Literature for EUbOPEN Chemogenomic Library” (2024).
